# Publication PMC7177633, “Effective Cellular Transport of Ortho-Halogenated Sulfonamide Derivatives of Metformin Is Related to Improved Antiproliferative Activity and Apoptosis Induction in MCF-7 Cells” (International Journal of Molecular Sciences, 2020)
# Several values for one entry are separate records, joined by “and”; a condition that tells them apart may be missing. Equal entries are not always repeated. Where two headings read alike, the source gives them in different places.
# How the values were obtained:
# MCF-7 cells [1] = experiment: Cell viability WST-1 assay, MCF-7; assay type: cell-based; conditions: Homo sapiens, MCF7; WST-1, 24 h, mean ± SD (n = 6–8); read-out: IC50 inhibition of MCF-7 cells' viability
# Procedure: (§1) The viability of MCF-7 and MDA-MB-231 cells was determined using a colorimetric WST-1 assay (Takara, Takara Bio Europe, Saint-Germain-en-Laye, France). Both cell lines were seeded at a density of 1 × 10^4 per well on 96-well plates and were cultured for 24 h to obtain 70% confluence. The following day, the cells were treated with various concentrations of compounds 1–9 diluted in the cell culture medium ([…]). The cells were incubated with tested compounds or pure medium (control) for 24 h (37 °C, 5% CO2). Afterwards, the cells were washed with 100 μL of culture medium, and then, the reagent dissolved in the medium was added (100 μL). The plates were incubated at the standard condition for 1.5 h, and the absorbance was read at 450 nm using a microplate reader (iMARK, Bio-Rad, Bio-Rad Laboratories Inc., Hercules, CA, USA). […] The results of samples treated with the test compounds were expressed as a percentage of the control samples. The data were presented as mean ± standard deviation (SD), n = 8. IC50 values (the concentration of the tested compound that inhibited cell growth by 50%) were calculated using a concentration-response curve (GraphPad Prism, Software, San Diego, CA, USA).
# (§2) The concentrations contributing to the 50% of cell growth inhibition (IC50) were calculated using nonlinear regression analysis (fitting the curve to log (concentration) vs. cellular response).
# MDA-MB-231 cells [2] = experiment: Cellular uptake of metformin sulfonamides in MDA-MB-231 cells (HPLC); assay type: in vitro ADME, human; conditions: for uptake into MDA-MB-231 cells: 800 μmol/L, 10 min incubation, 37 °C
# Procedure: (§3) The uptake of metformin sulfonamides (1–9) in MCF-7 and MDA-MB-231 cells was studied by incubation of the cells with 10−3000 μmol/L of compounds in 250 μL of prewarmed HBSS buffer at 37 °C for 10 min. Subsequently, the cells were then washed three times with 500 μL of ice-cold HBSS and lysed with 250 μL of 0.1-M NaOH. The samples were collected, centrifuged (5 min, 1400 rpm) and the supernatants were analyzed by the HPLC method. The concentration of each compound in the cells was calculated on the basis of the standard curve prepared by spiking known amounts of every compound on the cell layers in 250 μL of 0.1-M NaOH.
# (§4) The concentration of the studied sulfonamides (1–9) was assessed using the HPLC system, consisting of an Agilent 1100 binary pump (Agilent Technologies Inc., Wilmington, DE, USA), an 1100 micro-vacuum degasser, an HP 1050 autosampler and an HP 1050 variable wavelength detector (operated at 235 nm). The chromatographic separations of compounds 1–9 were conducted on an Agilent Zorbax SB-C18 analytical column (4.6 mm × 150 mm, 5 μm) using an isocratic elution of water containing 0.1% formic acid (pH ca. 3.0) and acetonitrile containing 0.1% formic acid with a changing ratio, depending on the compound. The analyses were conducted at room temperature (RT). The detailed procedure of chromatographic analysis was described in our previous paper. The studies were conducted in quadruplicates.
# (§5) The protein concentrations in representative wells of each plate were assessed using a Bio-Rad protein assay according to the Bradford method (EnVision, PerkinElmer, Inc., Waltham, MA, USA).
# MDA-MB-231 cells [3] = experiment: Cell viability WST-1 assay, MDA-MB-231; assay type: cell-based; conditions: Homo sapiens, MDA-MB-231; WST-1, 24 h, mean ± SD (n = 6–8); read-out: IC50 inhibition of MDA-MB-231 cells' viability
# Procedure: as §1, §2
# MCF-7 cells [4] = experiment: Uptake in the presence of OCT and MATE inhibitors, MCF-7 cells; assay type: in vitro ADME, human; conditions: for interactions with OCT, PMAT and MATE1 transporters, MCF-7: summary from uptake with inhibitors
# Procedure: (§6) The uptake of sulfonamide derivatives of metformin (1–9) in MCF-7 and MDA-MB-231 cells was studied also in the presence of disopyramide, cimetidine (OCT1 and 3 inhibitors), lopinavir (OCT and PMAT inhibitor) and methenamine (MATE and OCT2 inhibitors). The cells were incubated (37 °C, 10 min) with compounds 1–9 at concentrations of 400 and 800 μmol/L and inhibitors (disopyramide, cimetidine, lopinavir or methenamine) in 250 μL of prewarmed HBSS buffer. The protocol of determination of the compound concentration was as described above.
# HUVECs = system: HUVECs; set-up: method as in PMID 31776031; conditions: concentration range 10–3000 µmol/L; read-out: IC50 viability of HUVECs; cited from earlier work
# MDA-MB-231 cells [5] = experiment: Uptake in the presence of OCT and MATE inhibitors, MDA-MB-231 cells; assay type: in vitro ADME, human; conditions: for interactions with OCT, PMAT and MATE1 transporters, MDA-MB-231: summary from uptake with inhibitors
# Procedure: as §6
# MCF-7 cells [6] = experiment: Cellular uptake of metformin sulfonamides in MCF-7 cells (HPLC); assay type: in vitro ADME, human; conditions: for uptake into MCF-7 cells: 800 μmol/L, 10 min incubation, 37 °C
# Procedure: as §3, §4, §5
# OCTs [7] = experiment: Inhibition of [14C]choline uptake in MDA-MB-231 cells (competitive inhibition assay); assay type: cell-based, human; conditions: mean ± SD (n = 3)
# Procedure: (§7) The following day, after removal of the culture medium, the cells were carefully washed with prewarmed HBSS (Hanks’ balanced salt solution) containing 125 mM NaCl, 4.8 mM KCl, 1.2 mM MgSO4, 1.2 mM KH2PO4, 1.3 mM CaCl2, 5.6 mM glucose and 25 mM HEPES (pH 7.4). […] Then, the cells were washed three times with ice-cold HBSS (500 μL) and were lysed with 250 μL of 0.1-M NaOH in the ice bath, and the lysate was mixed with 1.0 mL of an emulsifier safe cocktail (PerkinElmer, Waltham, MA, USA). The radioactivity was measured by liquid scintillation counting (MicroBeta^2 counter, PerkinElmer, Waltham, MA, USA). The studies were carried out with the use of at least three replicates from the same cell passage.
# AoSMC = system: AoSMC; set-up: method as in PMID 31776031; conditions: concentration range 10–3000 µmol/L; read-out: IC50 viability of AoSMCs; cited from earlier work
# OCTs [8] = experiment: Inhibition of [14C]choline uptake in MCF-7 cells (competitive inhibition assay); assay type: cell-based, human; conditions: mean ± SD (n = 3)
# Procedure: as §7
# [9] = Eadie-Hofstee analysis, transporter I
# [10] = Eadie-Hofstee analysis, transporter I, read-out: Km, transporter I, MDA-MB-231
# [11] = Eadie-Hofstee analysis, transporter II
# [12] = Eadie-Hofstee analysis, transporter II, read-out: Km, transporter II, MDA-MB-231
# [13] = compound and inhibitor 400 and 800 µmol/L, 10 min, 37 °C
# [14] = Eadie-Hofstee analysis, transporter I, read-out: Km, transporter I, MCF-7
# [15] = Eadie-Hofstee analysis, transporter II, read-out: Km, transporter II, MCF-7
IC50 (MCF-7 cells [1]) [mM],uptake into MDA-MB-231 cells (MDA-MB-231 cells [2]) [nmol/min/mg protein],IC50 (MDA-MB-231 cells [3]) [mM],"uptake in the presence of disopyramide, MCF-7 (MCF-7 cells [4]; [13])","uptake in the presence of lopinavir, MCF-7 (MCF-7 cells [4]; [13])","uptake in the presence of methenamine, MCF-7 (MCF-7 cells [4]; [13])","interactions with OCT, PMAT and MATE1 transporters, MCF-7 (MCF-7 cells [4])","uptake in the presence of disopyramide, MDA-MB-231 (MDA-MB-231 cells [5]; [13])","uptake in the presence of methenamine, MDA-MB-231 (MDA-MB-231 cells [5]; [13])","interactions with OCT, PMAT and MATE1 transporters, MDA-MB-231 (MDA-MB-231 cells [5])",uptake into MCF-7 cells (MCF-7 cells [6]) [nmol/min/mg protein],IC50 (OCTs [7]) [mM],SMILES,"Vmax, transporter I, MDA-MB-231 (MDA-MB-231 cells [2]; [9]) [nmol/min/mg]",Km (MDA-MB-231 cells [2]; [10]) [µM],"Vmax, transporter II, MDA-MB-231 (MDA-MB-231 cells [2]; [11]) [nmol/min/mg]",Km (MDA-MB-231 cells [2]; [12]) [µM],"Vmax, transporter I, MCF-7 (MCF-7 cells [6]; [9])",Km (MCF-7 cells [6]; [14]) [µM],"Vmax, transporter II, MCF-7 (MCF-7 cells [6]; [11]) [nmol/min/mg]",Km (MCF-7 cells [6]; [15]) [µM],also measured
1.43 ± 0.135,0.42 ± 0.15,1.04 ± 0.134,did not change,did not change,significant decrease,"OCT1,MATE1",significantly lower uptake,increased uptake,"OCT1, PMAT, MATE1",0.84 ± 0.06,3.76 ± 0.124,CN(C)C(=N)N=C(N)NS(=O)(=O)c1ccc(Cl)cc1 [Compound 3],1.390 ± 0.23,2370 ± 480,2.20 ± 0.41,4670 ± 932,1.61 nmol/min/mg and 1.614 ± 0.11 nmol/min/mg,813 ± 86.5,10.76 ± 0.88,8810 ± 791,"transport efficacy (Vmax/Km) in MCF-7 relative to MDA-MB-231 (MDA-MB-231 cells [2]; fold lower in MDA-MB-231 than in MCF-7): 2.4–3.2 fold; uptake in the presence of cimetidine, MCF-7 (MCF-7 cells [4]; [13]): did not change; IC50 (HUVECs): 1.77 ± 0.12 mM; uptake in the presence of lopinavir, MDA-MB-231 (MDA-MB-231 cells [5]; [13]): increased uptake; Vmax MCF-7 (Michaelis Menten curves) (MCF-7 cells [6]; Michaelis-Menten curve): 5.073 ± 1.96 nmol/min/mg; Km (MCF-7 cells [6]; Michaelis-Menten curve, read-out: Km MCF-7 (Michaelis Menten curves)): 3580 ± 1710 µM; IC50 (AoSMC): 1.89 ± 0.11 mM"
1.14 ± 0.139,0.75 ± 0.29,2.11 ± 0.137,significantly reduced,significantly decreased,significantly decreased,"OCT1, PMAT, MATE1",significantly decreased,significantly decreased,"OCT1, OCT3, MATE1",1.11 ± 0.16,2.49 ± 0.211,CN(C)C(=N)N=C(N)NS(=O)(=O)c1ccc(Br)cc1 [Compound 6],2.644 ± 0.22,1930 ± 223,2.091 ± 0.15,2110 ± 172,0.7898 ± 0.12 nmol/min/mg,308 ± 102,13.64 ± 1.55,8930 ± 1100,"Vmax MDA-231 cells (Michaelis Menten curves) (MDA-MB-231 cells [2]; Michaelis-Menten curve): 4.044 ± 1.302 nmol/min/mg; Km (MDA-MB-231 cells [2]; Michaelis-Menten curve, read-out: Km MDA-231 cells (Michaelis Menten curves)): 3750 ± 1600 µM; uptake in the presence of cimetidine, MDA-MB-231 (MDA-MB-231 cells [5]; [13]): significantly decreased; IC50 (OCTs [8]): 2.06 ± 0.0584 mM"
